Results from US8709405B2, “Cancer vaccines containing epitopes of oncofetal antigen” (South Alabama Medical Science Foundation, priority 2002, dated 2014).

Key:
Assay type in all cases: cell-based, BALB/c mouse
[1] = tested on: CD8 T cell clone H5 (Ts); experiment: BUdR incorporation ELISA proliferation assay, Ts clone H5; settings: Table 4
Procedure: (§1) The epitopes recognized by 15 iLRP-reactive T cell clones derived from either naive BALB/c mice, BALB/c mice bearing MCA1315 fibrosarcoma tumors, or from BALB/c mice immunized with either 1 or 10 μg of recombinant murine iLRP were determined by testing the proliferation of those clones to overlapping peptides spanning the region of the iLRP molecule recognized by each clone in the presence of IL-2, as a growth factor for T cells and irradiated, T cell-depleted, syngeneic spleen cells as antigen-presenting cells. Proliferation was measured through ELISA determination of 5-bromodeoxyuridine incorporation during culture.
More specifically, the epitope-specificity of the iLRP-specific Th1, Tc, and Ts clones was determined using a modification of the 5′-bromodeoxyuridine (BudR) incorporation ELISA technique described in Rohrer, J. W., A. L. Barsoum, D. L. Dyess, J. A. Tucker, and J. H. Coggin, Jr. 1999. Human breast carcinoma patients develop clonable oncofetal antigen-specific effector and regulatory T lymphocytes. J. Immunol. 162:6880, using the Biotrak BUdR incorporation assay (Amersham, Arlington Heights, Ill.). […] When the required color density was reached, the reaction was stopped by adding 25 μl of 1M sulfuric acid to each well and the plate read on a microELISA reader at 450 nm. […]

[2] = tested on: iLRP-specific T cell clone L1 (CD8 Ts); experiment: BUdR incorporation ELISA proliferation assay, Ts clone L1; settings: Table 3; for BUdR Incorporation (A450) of iLRP-specific T cell clone L1 cells, Expt. 1 / BUdR Incorporation (A450) of iLRP-specific T cell clone L1 cells, Expt. 2: 100 ng/well stimulant with irradiated syngeneic spleen cells (APC), 48 h culture
Procedure: as §1
(§2) More specifically, the epitope-specificity of the iLRP-specific Th1, Tc, and Ts clones was determined using a modification of the 5′-bromodeoxyuridine (BudR) incorporation ELISA technique described in Rohrer, J. W., A. L. Barsoum, D. L. Dyess, J. A. Tucker, and J. H. Coggin, Jr. 1999. Human breast carcinoma patients develop clonable oncofetal antigen-specific effector and regulatory T lymphocytes. J. Immunol. 162:6880, using the Biotrak BUdR incorporation assay (Amersham, Arlington Heights, Ill.). Briefly, at the time of restimulation of the clones, a portion of the cloned T cells were assayed for proliferation to antigen-presenting cells (APC) and various iLRP peptides. The assay was performed with 10,000 viable cloned T cells/well plus […] irradiated syngeneic spleen cells (APC) plus 100 ng/well of intact iLRP/OFA protein or the various truncated iLRP/OFA proteins or the various iLRP/OFA peptides in Iscove's modified Dulbecco's medium (IMDM) containing 2 mM L-glutamine, 100 U/ml of penicillin G, 100 μg of streptomycin sulfate, and 10% fetal calf serum. The cells were cultured for a total of 48 hours. After 24 hours of culture 5′-bromodeoxyuridine was added to a final concentration of 10 μM/well. The cells were cultured for another 24 hours. At the end of the last 24 hours of incubation, the plates were centrifuged at 300×g for 10 min, and the labelling medium removed. The cells were then dried at 60° C. for 1 hour. The cells were fixed with an ethanol fixative provided in the Biotrak kit for 30 min at room temperature, fixative was removed, and the wells were coated with blocking buffer (1% protein in 50 mM Tris-HCl, 150 mM NaCl, pH 7.4) and incubated for 30 min at room temperature. The blocking buffer was removed, 100 μl of 1:100 diluted peroxidase-labelled anti-BUdR antibody was added to each well and the plates were incubated for 90 min at room temperature. The antibody solution was removed, and the wells washed three times with 300 μl/well of wash buffer. 200 μl of 3,3′, 5,5′-tetramethylbenzidine in […] DMSO was added to each well and the plate was covered and incubated at room temperature while oscillating gently for 5-30 min. When the required color density was reached, the reaction was stopped by adding 25 μl of 1M sulfuric acid to each well and the plate read on a microELISA reader at 450 nm.
(§3) Each time the assay was done, clones were stimulated by APC and intact iLRP/OFA as a positive control. Cloned T cells were also cultured in the presence of only APC in IMDM or in the presence of APC and an iLRP/OFA peptide or truncated iLRP/OFA known not to stimulate the clones being tested. These served as negative controls. In wells where BUdR was incorporated (the iLRP/OFA stimulates proliferation of the T cells), the A450 was at least 10-fold and often approximately 50-fold higher than the negative controls. Because the Ts cells always presented with apparently low affinity T cell antigen receptors, their BUdR incorporation gave A450 values about 10 times higher than the negative controls (e.g., about 0.2 vs. 0.02), but about 5 times lower than the Th1 or Tc clones (e.g., usually about 0.9).
Overlapping 12mer peptides of the first 25 amino acids of murine iLRP were produced. Thus, peptides 1-4 corresponded to amino acid residues 1-12, 5-16, 9-20 and 17-28 of murine iLRP. […]

[3] = tested on: iLRP-specific T cell clone H3 (Th1); experiment: BUdR incorporation ELISA proliferation assay, Th1 clone H3; settings: for BudR Incorporation (A450), T cell clone H3 (Th1): Table 8, overlapping 12-mers of iLRP 136-166, 100 U/ml IL-2
Procedure: as §1, §2
as §3, with “0.9). […]” for “0.9).”

[4] = tested on: iLRP-specific T cell clone H2 (Ts); experiment: BUdR incorporation ELISA proliferation assay, Ts clone H2; settings: for BudR Incorporation (A450), T cell clone H2 (Ts): Table 8, overlapping 12-mers of iLRP 136-166, 100 U/ml IL-2
Procedure: as §1, §2
as §3, with “0.9). […]” for “0.9).”

[5] = tested on: iLRP-specific T cell clone H4 (Ts); experiment: BUdR incorporation ELISA proliferation assay, Ts clone H4; settings: for BudR Incorporation (A450), T cell clone H4 (Ts): Table 8, overlapping 12-mers of iLRP 136-166, 100 U/ml IL-2
Procedure: as §1, §2
as §3, with “0.9). […]” for “0.9).”

[6] = tested on: iLRP-specific T cell clone L4 (Tc); experiment: BUdR incorporation ELISA proliferation assay, Tc clone L4; settings: for BudR Incorporation (A450), T cell clone L4 (Tc): Table 8, overlapping 12-mers of iLRP 136-166, 100 U/ml IL-2; for Proliferation of Tc clone L4 (in words): text on Table 8
Procedure: as §1, §2
as §3, with “0.9). […]” for “0.9).”

[7] = tested on: iLRP-specific T cell clone L5 (Tc); experiment: BUdR incorporation ELISA proliferation assay, Tc clone L5; settings: for BudR Incorporation (A450), T cell clone L5 (Tc): Table 8, overlapping 12-mers of iLRP 136-166, 100 U/ml IL-2
Procedure: as §1, §2
as §3, with “0.9). […]” for “0.9).”

[8] = tested on: iLRP-specific Th1, Tc, and Ts clones; experiment: BUdR incorporation proliferation assay, comparison across iLRP-specific T cell clone types; settings: Table 14; type of T cell clone reactive with the 12-mer
Procedure: as §1, §2, §3
Determination of the portion of the truncated iLRP/OFA protein or peptide reacted to by a given clone was done by analysis of the proliferation pattern to the various truncated proteins or peptides. […]

[9] = Table 7, stimulated by a.a.'s 136-166 sequence or controls

| Substance | BudR Incorporation (A450), T cell clone H3 (Th1) [3] | BudR Incorporation (A450), T cell clone H2 (Ts) [4] | BudR Incorporation (A450), T cell clone H4 (Ts) [5] | BudR Incorporation (A450), T cell clone L4 (Tc) [6] | BudR Incorporation (A450), T cell clone L5 (Tc) [7] | Reactive T cell clones [8] | other results |
| --- | --- | --- | --- | --- | --- | --- | --- |
| QMEQYIYKRKSD [P3 (aa 33-44)] | – | – | – | – | – | – | Proliferation of clone H5 (in words) [1]: proliferated to iLRP peptides 3 and 4 equally well |
| QMKEEDVLKLLAA [Peptide 3] | – | – | – | – | – | – | Proliferation of clone L1 (in words) [2]: does react somewhat; BUdR Incorporation (A450) of iLRP-specific T cell clone L1 cells, Expt. 1 [2]: .09 A450; BUdR Incorporation (A450) of iLRP-specific T cell clone L1 cells, Expt. 2 [2]: .07 A450 |
| SPLRYVDIAIPC [Peptide 31-5] | .95 A450 | .016 A450 | .016 A450 | .91 A450 | .024 A450 | Tc & TH1 | Response of Th1 clone H3 (in words) ([3]; text on Table 8): strongest response; Proliferation of Tc clone L4 (in words) [6]: proliferated to peptides 31-5 and 31-6 equally |
| TIALCNTDSPLR [Peptide 31-3] | .016 A450 | .015 A450 | .017 A450 | .016 A450 | .90 A450 | Tc | Proliferative response of Tc clone L5 (in words) ([7]; text on Table 8): equal proliferative response |
| VNLPTIALCNTD [Peptide 31-2] | .015 A450 | .22 A450 | .24 A450 | .018 A450 | .016 A450 | Ts | Proliferation of Ts clone H2 (in words) ([4]; text on Table 8): proliferated equally; Proliferation of Ts clone H4 (in words) ([5]; text on Table 8): proliferated equally |
| YIYKRKSDGTYI [P4 (aa 37-48)] | – | – | – | – | – | – | Proliferation of clone H5 (in words) [1]: proliferated to iLRP peptides 3 and 4 equally well |
| YVDIAIPCNNKG [Peptide 31-6] | .03 A450 | .015 A450 | .016 A450 | .90 A450 | .015 A450 | Tc | Proliferation of Tc clone L4 (in words) [6]: proliferated to peptides 31-5 and 31-6 equally |
| iLRP truncated protein 13: truncated iLRP protein, a.a.'s 242-295; negative control | .015 A450 | .017 A450 | .018 A450 | .017 A450 | .016 A450 | – | BUdR Incorporation (A450) of iLRP-specific T cell clone L1 cells, Expt. 1 [2]: .016 A450; BUdR Incorporation (A450) of iLRP-specific T cell clone L1 cells, Expt. 2 [2]: .014 A450; BUdR incorporation (A450), clone H3 (Th1) [3, 9]: .017 A450; BUdR incorporation (A450), clone H2 (Ts) [4, 9]: .015 A450; BUdR incorporation (A450), clone H4 (Ts) [5, 9]: .016 A450; BUdR incorporation (A450), clone L4 (Tc) [6, 9]: .017 A450; BUdR incorporation (A450), clone L5 (Tc) [7, 9]: .015 A450 |
